Measured values as given in PubChem BioAssay AID1645865 (Buhrlage Lab, Dana-Farber Cancer Institute and Novartis …, 2021).
Calls of active or inactive are those of the source.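 The calls were made as follows: active = maximal inhibition of the USP30 enzyme reaching 30% or more across the dose series; inactive = the rest.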

biological target: Ubiquitin carboxyl-terminal hydrolase 30 (Homo sapiens) (UniProt Q70CQ3); test: ubiquitin-specific protease 30 DUB inhibitors, concentration-effect, biochemical, validation of primary actives (AID 1645865); details: purified USP30, Ub-rhodamine cleavage, fluorescence, 2 h
Sequence (Q70CQ3 whole entry, looked up): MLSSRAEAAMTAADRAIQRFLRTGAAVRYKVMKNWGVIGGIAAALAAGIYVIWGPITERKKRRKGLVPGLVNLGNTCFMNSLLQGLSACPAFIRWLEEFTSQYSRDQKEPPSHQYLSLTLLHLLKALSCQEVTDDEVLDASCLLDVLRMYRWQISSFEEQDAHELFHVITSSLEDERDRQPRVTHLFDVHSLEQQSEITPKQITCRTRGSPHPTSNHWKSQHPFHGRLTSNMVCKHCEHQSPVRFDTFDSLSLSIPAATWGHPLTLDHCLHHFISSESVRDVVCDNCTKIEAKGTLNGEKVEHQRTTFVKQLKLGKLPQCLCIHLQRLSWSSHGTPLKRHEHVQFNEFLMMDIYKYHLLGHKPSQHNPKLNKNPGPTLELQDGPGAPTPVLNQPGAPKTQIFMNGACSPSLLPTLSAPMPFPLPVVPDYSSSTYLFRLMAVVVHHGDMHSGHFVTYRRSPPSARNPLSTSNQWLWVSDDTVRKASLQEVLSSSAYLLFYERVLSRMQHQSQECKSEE

IC50	Compound
> 50 µM (inactive)	Cc1cn[nH]c1C1COCCN1C(=O)c1ccc2ncccc2c1 (configuration not stated)
> 50 µM (inactive)	COc1ccc(NC(=O)C2[C@@H]3C(=O)N(C4CCCCC4)C(=O)[C@@H]3[C@H]3c4ccccc4C=CN23)cc1 (some centres not stated)
29.8 µM	Cc1cccc(-c2noc(CCn3c(=O)[nH]c4ccccc4c3=O)n2)c1
46.6 µM	O=[N+]([O-])c1cccc(-c2noc(CSc3ccccc3)n2)c1
> 50 µM (inactive)	COC(=O)C1C(c2ccc(Cl)cc2Cl)C2(C(=O)c3ccccc3C2=O)C2C=Cc3ccccc3N12 (configuration not stated)
24.3 µM	O=C1CC(C(=O)Nc2ccccc2F)n2nc(-c3ccccc3)cc2N1 (configuration not stated)
> 50 µM (inactive)	Cc1nnc(-c2nnc(NCc3ccc(Cl)cc3)c3ccccc23)o1
16.9 µM	O=C(c1cn(-c2cccc(F)c2)nn1)N1CCc2ccccc2C1
> 50 µM (inactive)	CCOC(=O)C1C(c2ccc(Br)cc2)C2(C(=O)c3ccccc3C2=O)C2C=Cc3ccccc3N12 (configuration not stated)
> 50 µM (inactive)	Cc1ccc(-c2nc(-c3cccs3)cc(C(F)(F)F)c2C#N)cc1
> 50 µM (inactive)	c1ccc2c(c1)ccc1nnc(-c3ccc4c(c3)OCO4)n12
> 50 µM (inactive)	Fc1ccc(Nc2nc(Nc3cccc(F)c3)nc3nccnc23)cc1
28.7 µM	COc1ccc(-c2[nH]c3ccccc3c2SCCNC(=O)c2ccc(S(=O)(=O)N3CCOCC3)cc2)cc1
33.8 µM	COC(=O)c1ccccc1NC(=O)CSc1nnc(-c2ccc(C(C)(C)C)cc2)n1C1CCCC1
20.7 µM	Cc1cnnn1-c1ccc(C(=O)Nc2cc(Cl)ccc2Cl)cc1
> 50 µM (inactive)	Cc1nn(-c2ccccc2)c2c1N=C1C(Cl)=CC(Cl)=CN1C21C(=O)Nc2ccccc21 (configuration not stated)
25.4 µM	c1ccc(-n2nnc(-c3noc(-c4ccccn4)n3)c2-c2ccncc2)cc1
> 50 µM (inactive)	Cc1ccccc1NC(=O)c1ccn(COc2ccc(Cl)cc2)n1
> 50 µM (inactive)	COc1ccc(N2C(=O)[C@@H]3[C@H]4c5ccccc5C=CN4C(C(=O)Nc4ccc5c(c4)OCO5)[C@@H]3C2=O)cc1 (some centres not stated)
22.1 µM	Cc1cccc(NC(=O)CN2C(=O)CC(c3ccccc3)S(=O)(=O)c3ccccc32)c1C (configuration not stated)
26.8 µM	O=C1CC(C(=O)Nc2ccc(F)cc2)n2nc(SCc3ccccc3)nc2N1 (configuration not stated)
> 50 µM (inactive)	COc1cccc(-n2nnc(C(=O)Nc3ccc(C)c(C)c3)c2C)c1

More lines, now with the values behind:

Compound	IC50
O=C1Nc2ccccc2C(=O)C1C(c1ccc(Cl)cc1)C1C(=O)Nc2ccccc2C1=O (configuration not stated)	> 50 µM (inactive)
COc1ccc(NC(=O)c2cc(-c3cccnc3)n[nH]2)cc1Cl	1.16 µM
CC(CCc1ccccc1)NC(=O)C(=O)c1cn(CC(=O)N2CCOCC2)c2ccccc12 (configuration not stated)	> 50 µM (inactive)
COc1cccc2c1NC(=O)C21CCN(C(=O)Nc2cccc3ccccc23)CC1	> 50 µM (inactive)
O=C(NCCc1ccccc1)c1nnn(Cc2cccc(Cl)c2)c1-n1cccc1	> 50 µM (inactive)
Cc1ccc(-c2ccc(N3CCOCC3)nn2)cc1S(=O)(=O)N1CCOCC1	> 50 µM (inactive)
C/C1=C/CC(O)/C=C/C(C)C(O)C(C)/C=C(\C)C(=O)c2c(O)c(C)cc3c2C(=O)C(Cl)=C(NC(=O)\C=C/C=C/C=C\C(C)C(O)CC1=O)C3=O (configuration not stated)	> 50 µM (inactive)
CCCc1cc(=O)oc2cc(OCC(=O)NCc3ccc(OC)cc3)ccc12	12.3 µM
CS(=O)(=O)NC1CCCN(C(=O)Nc2cccc3ccccc23)C1 (configuration not stated)	> 50 µM (inactive)
O=C(O)c1nccnc1C(=O)N1CCc2ccccc2C1	> 50 µM (inactive)
CCc1cc(=O)n(CC(=O)Nc2cc(C)ccc2OC)c(N2CCOCC2)n1	26 µM
Cc1nn(-c2cc(N3CCOCC3)ncn2)c(C)c1CCC(=O)Nc1ccc(C(C)C)cc1	34.9 µM
COc1cc(OC)cc(-n2c(=O)c3sccc3n(CC(=O)c3ccc(F)cc3)c2=O)c1	31.3 µM
CC(=O)Nc1ccc(S(=O)(=O)N2CCCC(C(=O)Nc3cccc4ccccc34)C2)cc1 (configuration not stated)	25.5 µM
c1ccc(CCN2CCc3nc4cccnc4cc3C2)nc1	> 50 µM (inactive)
O=C(NCc1ccccc1Cl)C1CCCN(c2nc3ccsc3c(=O)s2)C1 (configuration not stated)	0.965 µM
COC(=O)c1sc2ccccc2c1NC(=O)c1ccc(Br)s1	21.5 µM
CC(=O)Nc1ccc(S(=O)(=O)NCc2ccc(C(=O)NCCc3ccc(Cl)cc3)cc2)cc1	1.71 µM
CC1CCN(C(=O)c2cn(-c3cc(N4CCC(C)CC4)ncn3)cn2)CC1	> 50 µM (inactive)
Cc1cc(C)n2nc(CNc3cccc(Cl)c3)nc2n1	> 50 µM (inactive)
Cc1sc2ccn(C)c(=O)c2c1C(=O)NC1CCCC1	25.9 µM
COc1ccc(CCNC(=O)c2noc3c2CCc2sccc2-3)cc1OC	39.9 µM
COc1cc(NC(=O)Cn2c(=O)n(-c3ccc(CC(=O)NC4CCCC4)cc3)c(=O)c3ccccc32)cc(OC)c1	> 50 µM (inactive)
CCc1cc(C(=O)c2ccc(OC)cc2)c(NC(=O)CN2CCCCC2)s1	33.5 µM
O=C(/C=C/c1c(F)cccc1Cl)N1CCc2ccccc2C1	> 50 µM (inactive)
